Measurements: patent US20260055088A1, “HETEROCYCLIC COMPOUND, METHOD FOR PREPARING SAME, AND PHARMACEUTICAL USE THEREOF” (Jiangsu Hengrui Pharmaceuticals Co., Ltd., priority 2022, published 2026)

Biological target: Nav1.8 ion channel stably expressed on HEK293 cells (Homo sapiens (Human), UniProt Q9Y5Y9)
Experiment: Inhibitory activity against Nav1.8, manual patch clamp
Assay type: cell-based
Settings: resting protocol (-80 mV to 10 mV), 1 μM TTX, read-out: IC50 for the inhibition of Nav1.8 channel activity
Source text: The objective of the experiment was to investigate the effects of the compounds on the Nav1.8 ion channel in ex vivo experiments. The Nav1.8 ion channel is stably expressed on HEK293 cells. After the Nav1.8 current stabilized, the effects of the compounds on the Nav1.8 ion channel were obtained by comparing the magnitudes of the Nav1.8 currents before and after the compounds were applied.
• 1) A patch clamp amplifier: patch clamp PC-505B (WARNER instruments)/MultiClamp 700A (Axon instrument) • 2) A digital-to-analog converter: Digidata 1440A (Axon CNS)/Digidata 1550A (Axon instruments) • 3) A micromanipulator: MP-225 (SUTTER instrument) • 4) An inverted microscope: TL4 (Olympus) • 5) Glass micropipette puller: PC-10 (NARISHIGE) • 6) Microelectrode glass capillaries: B12024F (Wuhan VitalSense Scientific Instruments Co., Ltd.) • 7) Dimethyl sulfoxide (DMSO) D2650 (Sigma-Aldrich) • 8) TTX AF3014 (Affix Scientific)
The compounds for preparing the intracellular and extracellular fluids were purchased from Sigma (St. Louis, MO) except for the NaOH and KOH for the acid-base titrations. The extracellular fluid (mM) was: NaCl, 137; KCl, 4; CaCl2, 1.8; MgCl2, 1; HEPES, 10; glucose, 10; pH 7.4 (NaOH titration). The intracellular fluid (mM) was: aspartic acid, 140; MgCl2, 2; EGTA, 11; HEPES, 10; pH 7.2 (CsOH titration). All test and control compound solutions contained 1 μM TTX.
The test compounds were stored at a concentration of 9 mM in dimethyl sulfoxide (DMSO). On the testing day, the compounds were further dissolved in the extracellular fluid to prepare the required concentrations.
1) After the compounds were prepared into solutions with specified concentrations, the compound solutions were sequentially added to channels in ascending order according to their concentrations, and each channel was labeled.
2) A cell was transferred to the perfusion chamber. Positive pressure was applied inside the electrode, and the electrode tip was brought into contact with the cell. The three-way valve of the suction device was switched to the state where all three ways were open, and negative pressure was then applied to the electrode, allowing a high-resistance seal to form between the electrode and the cell. The application of negative pressure was continued to rupture the cell membrane, leading to the formation of a current pathway.
3) After the cell membrane rupture current stabilized, perfusion was performed with different concentrations in sequence. If the current remained stable for at least one minute, perfusion was performed with the next concentration.
4) The perfusion chamber was cleaned. The perfusion chamber was rinsed with the compound solutions in descending order according to their concentrations, with each concentration applied for 20 s. Finally, the perfusion chamber was rinsed with the extracellular fluid for 1 min.
The cell was clamped at −80 mV and then depolarized to 10 mV using a square wave lasting for 10 ms to obtain a Nav1.8 current. This procedure was repeated once every 5 seconds. The maximum current induced by the square wave was detected. After the current stabilized, perfusion was performed with the test compounds. After the reaction stabilized, the strength of the blocking was calculated.
The data were stored on a computer system and analyzed. Data acquisition and analysis were performed using pCLAMP 10 (Molecular Devices, Union City, CA), and the results were reviewed by a manager. “Current stabilized” means that the changes in current over time were within a limited range. The magnitude of the current after stabilization was used to calculate the effect of the compound at this […].
The inhibitory activity of the compounds of the present disclosure against Nav1.8 was determined through the above assay.

Compound: COc1c([C@H]2[C@H](C(=O)Nc3ccnc(OC[C@H](O)CO)c3)O[C@@](C)(C(F)(F)F)[C@H]2C)ccc(F)c1F [Example 2, (2R,3S,4S,5R)-3-(3,4-Difluoro-2-methoxyphenyl)-N-(2-((R)-2,3-dihydroxypropoxy)pyridin-4-yl)-4,5-dimethyl-5-(trifluoromethyl)tetrahydrofuran-2-carboxamide]
- IC50: 2.89 nM

Compound: COc1c([C@H]2[C@H](C(=O)Nc3ccnc(C(C)(C)O)c3)O[C@@](C)(C(F)(F)F)[C@H]2C)ccc(F)c1F [Example 3, (2R,3S,4S,5R)-3-(3,4-Difluoro-2-methoxyphenyl)-N-(2-(2-hydroxypropan-2-yl)pyridin-4-yl)-4,5-dimethyl-5-(trifluoromethyl)tetrahydrofuran-2-carboxamide]
- IC50: 2.65 nM

Compound: CONC(=O)c1cc(NC(=O)[C@@H]2O[C@@](C)(C(F)(F)F)[C@@H](C)[C@H]2c2ccc(F)c(F)c2OC)ccn1 [Example 5, 4-((2R,3S,4S,5R)-3-(3,4-Difluoro-2-methoxyphenyl)-4,5-dimethyl-5-(trifluoromethyl)tetrahydrofuran-2-carboxamido)-N-methoxypicolinamide]
- IC50: 0.71 nM

Compound: COc1c([C@H]2[C@H](C(=O)Nc3ccnc(C(N)CO)c3)O[C@@](C)(C(F)(F)F)[C@H]2C)ccc(F)c1F (stereo partly drawn) [Example 6, (2R,3S,4S,5R)—N-(2-(1-Amino-2-hydroxyethyl)pyridin-4-yl)-3-(3,4-difluoro-2-methoxyphenyl)-4,5-dimethyl-5-(trifluoromethyl)tetrahydrofuran-2-carboxamide]
- IC50: 1.87 nM

Compound: COc1c([C@H]2[C@H](C(=O)Nc3ccnc(NC(N)=O)c3)O[C@@](C)(C(F)(F)F)[C@H]2C)ccc(F)c1F [Example 9, (2R,3S,4S,5R)-3-(3,4-Difluoro-2-methoxyphenyl)-4,5-dimethyl-5-(trifluoromethyl)-N-(2-ureidopyridin-4-yl)tetrahydrofuran-2-carboxamide]
- IC50: 3.24 nM

Compound: COc1c([C@H]2[C@H](C(=O)Nc3ccnc(NC(C)=O)c3)O[C@@](C)(C(F)(F)F)[C@H]2C)ccc(F)c1F [Example 11, (2R,3S,4S,5R)—N-(2-Acetamidopyridin-4-yl)-3-(3,4-difluoro-2-methoxyphenyl)-4,5-dimethyl-5-(trifluoromethyl)tetrahydrofuran-2-carboxamide]
- IC50: 1.54 nM

Compound: COc1c([C@H]2[C@H](C(=O)Nc3ccnc(C(=O)N4CCCN4)c3)O[C@@](C)(C(F)(F)F)[C@H]2C)ccc(F)c1F [Example 14, (2R,3S,4S,5R)-3-(3,4-Difluoro-2-methoxyphenyl)-4,5-dimethyl-N-(2-(pyrazolidine-1-carbonyl)pyridin-4-yl)-5-(trifluoromethyl)tetrahydrofuran-2-carboxamide]
- IC50: 2.12 nM

Compound: COc1c([C@H]2[C@H](C(=O)Nc3ccnc(C(=O)N4CCCO4)c3)O[C@@](C)(C(F)(F)F)[C@H]2C)ccc(F)c1F [Example 15, (2R,3S,4S,5R)-3-(3,4-Difluoro-2-methoxyphenyl)-N-(2-(isoxazolidine-2-carbonyl)pyridin-4-yl)-4,5-dimethyl-5-(trifluoromethyl)tetrahydrofuran-2-carboxamide]
- IC50: 1.78 nM

Compound: COc1c([C@H]2[C@H](C(=O)Nc3ccnc(C(=O)NOCC4CC4)c3)O[C@@](C)(C(F)(F)F)[C@H]2C)ccc(F)c1F [Example 18, N-(Cyclopropylmethoxy)-4-((2R,3S,4S,5R)-3-(3,4-difluoro-2-methoxyphenyl)-4,5-dimethyl-5-(trifluoromethyl)tetrahydrofuran-2-carboxamido)picolinamide]
- IC50: 1.89 nM

Compound: CNNC(=O)c1cc(NC(=O)[C@@H]2O[C@@](C)(C(F)(F)F)[C@@H](C)[C@H]2c2ccc(F)c(F)c2OC)ccn1 [Example 19, (2R,3S,4S,5R)-3-(3,4-Difluoro-2-methoxyphenyl)-4,5-dimethyl-N-(2-(2-methylhydrazine-1-carbonyl)pyridin-4-yl)-5-(trifluoromethyl)tetrahydrofuran-2-carboxamide]
- IC50: 1.01 nM
